Test system: 922993-354-T-J3-PDC complex spheroids, viability, % test/control
Assay: Anticancer human tumor 922993-354-T-J3-PDC patient-derived endometrial carcinoma cell line growth inhibition [CLK]
Conditions: for IC50: curve of first compound; for viability, T/C: stronger effect = lower value
Procedure, shortened: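 Patient-derived tumor cells grown as complex spheroids with HUVEC endothelial cells and mesenchymal stem cells, treated with drug combinations. Concentrations descend in half-log steps from near clinical Cmax, or from 10 microM if Cmax unknown.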

[1] = second compound 0.0316 µM, first compound 0.0316 µM
[2] = second compound 0.0316 µM, first compound 0.1 µM
[3] = second compound 0.0316 µM, first compound 0.316 µM
[4] = second compound 0.0316 µM, first compound 1 µM
[5] = second compound 0.0316 µM, first compound 3.16 µM
[6] = second compound 0.0316 µM, first compound 10 µM
[7] = second compound 0.1 µM, first compound 0.0316 µM
[8] = second compound 0.1 µM, first compound 0.1 µM
[9] = second compound 0.1 µM, first compound 0.316 µM
[10] = second compound 0.1 µM, first compound 1 µM
[11] = second compound 0.1 µM, first compound 3.16 µM
[12] = second compound 0.1 µM, first compound 10 µM
[13] = second compound 0.316 µM, first compound 0.0316 µM
[14] = second compound 0.316 µM, first compound 0.1 µM
[15] = second compound 0.316 µM, first compound 0.316 µM
[16] = second compound 0.316 µM, first compound 1 µM
[17] = second compound 0.316 µM, first compound 3.16 µM
[18] = second compound 0.316 µM, first compound 10 µM
[19] = second compound 1 µM, first compound 0.0316 µM
[20] = second compound 1 µM, first compound 0.1 µM
[21] = second compound 1 µM, first compound 0.316 µM
[22] = second compound 1 µM, first compound 1 µM
[23] = second compound 1 µM, first compound 3.16 µM
[24] = second compound 1 µM, first compound 10 µM
[25] = second compound 3.16 µM, first compound 0.0316 µM
[26] = second compound 3.16 µM, first compound 0.1 µM
[27] = second compound 3.16 µM, first compound 0.316 µM
[28] = second compound 3.16 µM, first compound 1 µM
[29] = second compound 3.16 µM, first compound 3.16 µM
[30] = second compound 3.16 µM, first compound 10 µM
[31] = second compound 10 µM, first compound 0.0316 µM
[32] = second compound 10 µM, first compound 0.1 µM
[33] = second compound 10 µM, first compound 0.316 µM
[34] = second compound 10 µM, first compound 1 µM
[35] = second compound 10 µM, first compound 3.16 µM
[36] = second compound 10 µM, first compound 10 µM
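Also: spheroids exposed to the agents for 7 days before readout.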

CC(=O)O[C@H]1C(=O)[C@@]2(C)[C@H]([C@H](OC(=O)c3ccccc3)[C@]3(O)C[C@H](OC(=O)[C@H](O)[C@@H](NC(=O)c4ccccc4)c4ccccc4)C(C)=C1C3(C)C)[C@]1(OC(C)=O)CO[C@@H]1C[C@@H]2O + CN1CCN(c2cc(C(=O)Nc3cc4cc(-c5cnn(C)c5)ccc4cn3)ccn2)CC1
IC50 (second compound 0.0316 µM): 2880 nM | IC50 (second compound 0.1 µM): 2370 nM | IC50 (second compound 0.316 µM): < 31.6 nM | IC50 (second compound 1 µM): < 31.6 nM | IC50 (second compound 3.16 µM): < 31.6 nM | IC50 (second compound 10 µM): < 31.6 nM | viability, T/C [1]: 110% | viability, T/C [2]: 126% | viability, T/C [3]: 91.4% | viability, T/C [4]: 95% | viability, T/C [5]: 43.5% | viability, T/C [6]: 36.3% | viability, T/C [7]: 94.8% | viability, T/C [8]: 100% | viability, T/C [9]: 98.3% | viability, T/C [10]: 63.1% | viability, T/C [11]: 50.1% | viability, T/C [12]: 30.3% | viability, T/C [13]: 26% | viability, T/C [14]: 24.9% | viability, T/C [15]: 29.8% | viability, T/C [16]: 19.9% | viability, T/C [17]: 16.1% | viability, T/C [18]: 14.4% | viability, T/C [19]: 0.1% | viability, T/C [20]: 0.47% | viability, T/C [21]: 0.12% | viability, T/C [22]: 0.07% | viability, T/C [23]: 0.06% | viability, T/C [24]: 0.07% | viability, T/C [25]: 0.1% | viability, T/C [26]: 0.79% | viability, T/C [27]: 0.18% | viability, T/C [28]: 0.67% | viability, T/C [29]: 0.76% | viability, T/C [30]: 0.11% | viability, T/C [31]: 0.12% | viability, T/C [32]: 0.14% | viability, T/C [33]: 0.2% | viability, T/C [34]: 0.16% | viability, T/C [35]: 1.02% | viability, T/C [36]: 2.94%

CCc1c2c(nc3ccc(O)cc13)-c1cc3c(c(=O)n1C2)COC(=O)[C@]3(O)CC + CN1CCN(c2cc(C(=O)Nc3cc4cc(-c5cnn(C)c5)ccc4cn3)ccn2)CC1
IC50 (second compound 0.0316 µM): 16.6 nM | IC50 (second compound 0.1 µM): 15.2 nM | IC50 (second compound 0.316 µM): < 3.16 nM | IC50 (second compound 1 µM): < 3.16 nM | IC50 (second compound 3.16 µM): < 3.16 nM | IC50 (second compound 10 µM): < 3.16 nM | viability, T/C (second compound 0.0316 µM, first compound 0.00316 µM): 96.4% | viability, T/C (second compound 0.0316 µM, first compound 0.01 µM): 75.1% | viability, T/C [1]: 16.3% | viability, T/C [2]: 16.1% | viability, T/C [3]: 16.8% | viability, T/C [4]: 24.9% | viability, T/C (second compound 0.1 µM, first compound 0.00316 µM): 84.3% | viability, T/C (second compound 0.1 µM, first compound 0.01 µM): 66.9% | viability, T/C [7]: 14.1% | viability, T/C [8]: 18.8% | viability, T/C [9]: 16.2% | viability, T/C [10]: 32.3% | viability, T/C (second compound 0.316 µM, first compound 0.00316 µM): 27.2% | viability, T/C (second compound 0.316 µM, first compound 0.01 µM): 19.2% | viability, T/C [13]: 9.9% | viability, T/C [14]: 9.85% | viability, T/C [15]: 18.8% | viability, T/C [16]: 15.8% | viability, T/C (second compound 1 µM, first compound 0.00316 µM): 0.1% | viability, T/C (second compound 1 µM, first compound 0.01 µM): 0.13% | viability, T/C [19]: 1.37% | viability, T/C [20]: 0.07% | viability, T/C [21]: 0.87% | viability, T/C [22]: 0.33% | viability, T/C (second compound 3.16 µM, first compound 0.00316 µM): 0.08% | viability, T/C (second compound 3.16 µM, first compound 0.01 µM): 0.17% | viability, T/C [25]: 0.99% | viability, T/C [26]: 1.34% | viability, T/C [27]: 1% | viability, T/C [28]: 2.82% | viability, T/C (second compound 10 µM, first compound 0.00316 µM): 0.12% | viability, T/C (second compound 10 µM, first compound 0.01 µM): 0.14% | viability, T/C [31]: 0.83% | viability, T/C [32]: 0.18% | viability, T/C [33]: 0.59% | viability, T/C [34]: 2.79%

COc1cccc2c1C(=O)c1c(O)c3c(c(O)c1C2=O)CC(O)(C(=O)CO)CC3OC1CC(N)C(O)C(C)O1 (stereo unspecified) + CN1CCN(c2cc(C(=O)Nc3cc4cc(-c5cnn(C)c5)ccc4cn3)ccn2)CC1
IC50 (second compound 0.0316 µM): 2210 nM | IC50 (second compound 0.1 µM): 1840 nM | IC50 (second compound 0.316 µM): < 31.6 nM | IC50 (second compound 1 µM): < 31.6 nM | IC50 (second compound 3.16 µM): < 31.6 nM | IC50 (second compound 10 µM): < 31.6 nM | viability, T/C [1]: 108% | viability, T/C [2]: 119% | viability, T/C [3]: 93.7% | viability, T/C [4]: 66.1% | viability, T/C [5]: 45.2% | viability, T/C [6]: 15.5% | viability, T/C [7]: 123% | viability, T/C [8]: 109% | viability, T/C [9]: 83.3% | viability, T/C [10]: 65% | viability, T/C [11]: 37.8% | viability, T/C [12]: 17.4% | viability, T/C [13]: 31% | viability, T/C [14]: 38% | viability, T/C [15]: 32.9% | viability, T/C [16]: 26.4% | viability, T/C [17]: 13.3% | viability, T/C [18]: 11.1% | viability, T/C [19]: 0.14% | viability, T/C [20]: 1.85% | viability, T/C [21]: 0.14% | viability, T/C [22]: 0.11% | viability, T/C [23]: 0.09% | viability, T/C [24]: 1.32% | viability, T/C [25]: 0.12% | viability, T/C [26]: 0.2% | viability, T/C [27]: 0.67% | viability, T/C [28]: 0.09% | viability, T/C [29]: 1.78% | viability, T/C [30]: 1.28% | viability, T/C [31]: 0.16% | viability, T/C [32]: 0.15% | viability, T/C [33]: 0.16% | viability, T/C [34]: 0.15% | viability, T/C [35]: 1.57% | viability, T/C [36]: 1.56%

From PubChem BioAssay AID2060606 (Molecular Pharmacology Branch, DTP, NCI, 2025)
